# Measurements taken from patent US6166000A, “Methods for preparation and use of 1α,24(S)-Dihydroxy vitamin . D.sub2” (priority 1995, dated 2000).
# Key:
# [1] = test system: men and women with renal disease undergoing chronic hemodialysis; experiment: Management of hypocalcemia and metabolic bone disease in chronic hemodialysis patients; format: in vivo, human; settings: greater than 3.0 μg/day, twelve months; double-isotope technique
# Method: A twelve-month, double-blind, placebo-controlled clinical trial is conducted with thirty men and women with renal disease who are undergoing chronic hemodialysis. […] Efficacy is evaluated by pre- and post-treatment comparisons of the two patient groups with regard to (a) direct measurements of intestinal calcium absorption, (b) total body calcium retention, (c) radial and spinal bone mineral density, or (d) determinations of serum calcium. Safety is evaluated by regular monitoring of serum calcium.
# [2] = target: T1, vitamin D serum binding protein (DBP) (Rattus norvegicus, UniProt P04276); experiment: Affinity for vitamin D serum binding protein using vitamin D deficient rat serum; settings: in words
# T1 sequence (P04276 17-476): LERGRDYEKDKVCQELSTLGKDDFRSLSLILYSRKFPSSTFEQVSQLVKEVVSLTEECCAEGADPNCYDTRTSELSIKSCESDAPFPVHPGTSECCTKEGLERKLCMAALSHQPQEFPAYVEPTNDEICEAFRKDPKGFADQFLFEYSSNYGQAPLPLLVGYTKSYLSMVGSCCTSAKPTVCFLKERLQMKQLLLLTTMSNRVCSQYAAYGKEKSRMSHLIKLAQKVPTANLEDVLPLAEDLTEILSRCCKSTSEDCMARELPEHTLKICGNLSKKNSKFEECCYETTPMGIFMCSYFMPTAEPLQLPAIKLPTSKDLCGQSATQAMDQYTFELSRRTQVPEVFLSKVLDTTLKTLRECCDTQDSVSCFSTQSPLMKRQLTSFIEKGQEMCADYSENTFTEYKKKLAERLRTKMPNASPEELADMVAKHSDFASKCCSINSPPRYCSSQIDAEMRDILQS
# From the text: In addition, the weak binding by the DBP was indicative of more rapid clearance, allowing for low toxicity.
# HL-60 promyelocytes = experiment: HL-60 cell differentiation assay; format: cell-based; settings: dose-response; acid esterase, NBT reduction, thymidine incorporation
# Method: A dose-response study is conducted with 1α,24(S)-(OH)2 D2 in the HL-60 cell differentiation assay as described by DeLuca and Ostrom (DeLuca, H. F. and Ostrem, V. K., Prog. Clin. Biol. Res., vol. 259, pp. 41-55 (1988)). In this study, 1α,25-(OH)2 D3 is used as a positive control and appropriate solvents are used as negative controls. The following variables are evaluated: nonspecific acid esterase activity, nitroblue tetrazolium (NBT) reduction, and thymidine incorporation.
# Hep 3B cells = experiment: Metabolite production in Hep 3B cells incubated with 1α-OH-D2; format: in vitro ADME, human; settings: Experiment 2, photodiode array spectrophotometry
# Method: Substantially pure 1α-(OH)D2 was obtained from Bone Care International, Inc. of Madison, Wis. The 1α-(OH)D2 was cultured for 48 hours with cells derived from a human hepatoma, Hep 3B, in medium devoid of fetal calf serum using known methods in the art.
# Lipid extracts of the combined medium and cells were generated by known methods in the art and were subjected to high pressure liquid chromatography (HPLC) on Zorbax-S1L developed with hexane/isopropanol/methanol (91:7:2). The putative 1α,24(?)-(OH)2 D2 metabolite eluted between the parent 1α-(OH)D2 and standard 1α,25-(OH)2 D2 (also obtained from Bone Care International, Inc. of Madison, Wis.). (As used herein, the term "1α,24(?)-(OH)2 D2 " is meant to indicate that the epimeric form has not been identified.) The 1α,24(?)-(OH)2 D2 was further purified by this HPLC system before the metabolite's identification was undertaken using mass spectrometry analysis.
# Hep 3B cells were incubated with 1α-OH-D2, as described above, at final concentrations of 1, 10, or 100 nM (Experiment 1), and 1 or 10 μM (Experiment 2) and 1α,24(S)-(OH)2 D2 was extracted and purified. The 1α,24(S)-(OH)2 D2 and 1α,25-(OH)2 D2 metabolites were quantitated by recovered radiolabel (Experiment 1) or by photodiode array spectrophotometry (Experiment 2).
# [3] = test system: human cancer cell lines BCA-1 or ZR-75-1 (breast) and COL-1 (colon); experiment: Antiproliferative activity in human cancer cell lines (thymidine incorporation); format: cell-based; settings: dose-response
# Method: Dose-response studies are conducted with 1α,24(S)-(OH)2 D2 in a battery of human cancer cell lines. These cell lines include, but are not limited to, the following: BCA-1 or ZR-75-1 (breast) and COL-1 (colon), as described by Shieh, H. L. et al. Chem. Biol. Interact., vol. 81, pp. 35-55 (1982). In this study, appropriate solvents are used as negative controls.
# vitamin D receptor (VDR) = target: T2, vitamin D receptor (VDR) (Homo sapiens, UniProt P11473); experiment: Vitamin D-dependent transcriptional activation: growth hormone production in COS-1 cells co-transfected with VDR plasmid and VDRE-GH plasmid; format: cell-based; settings: in words
# T2 sequence (P11473 1-427): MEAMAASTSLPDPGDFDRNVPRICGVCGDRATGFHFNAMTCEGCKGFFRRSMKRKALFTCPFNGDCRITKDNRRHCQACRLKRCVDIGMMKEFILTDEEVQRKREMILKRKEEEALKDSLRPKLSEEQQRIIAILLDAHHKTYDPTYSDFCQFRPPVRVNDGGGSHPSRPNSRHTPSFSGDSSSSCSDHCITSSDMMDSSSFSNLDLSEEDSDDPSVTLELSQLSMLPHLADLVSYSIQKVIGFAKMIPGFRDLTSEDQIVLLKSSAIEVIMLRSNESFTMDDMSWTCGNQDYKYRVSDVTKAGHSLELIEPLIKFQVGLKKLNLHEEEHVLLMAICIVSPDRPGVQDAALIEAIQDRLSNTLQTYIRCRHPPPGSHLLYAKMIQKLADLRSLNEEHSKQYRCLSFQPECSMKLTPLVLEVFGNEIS
# Method: The biological activity in vitro of chemically synthesized 1α,24(S)-(OH)2 D2 and 1α,24(R)-(OH)2 D2 was measured using a vitamin D-dependent transcriptional activation model system in which a vitamin D receptor (VDR)-expressing plasmid pSG5-hVDR1/3and a plasmid p(CT4)^4 TKGH containing a Growth Hormone (GH)-gene, under the control of a vitamin D-responsive element (VDRE) were co-transfected into Green monkey kidney, COS-1 cells. DNA's for these two vectors were supplied by Dr. Mark Haussler, Department of Biochemistry, University of Arizona, Tucson, Ariz.
# Tranfected cells were incubated with vitamin D metabolites and growth hormone production was measured.
compound,measurement,setting,value
"C=C1/C(=C\C=C2/CCC[C@]3(C)[C@@H]([C@H](C)/C=C/[C@@](C)(O)C(C)C)CC[C@@H]23)C[C@@H](O)C[C@@H]1O [1α,24(S)-(OH)2 D2, 1α,24(S)-dihydroxy Vitamin D2]",intestinal calcium absorption,[1],significantly increases
same,binding affinity for the vitamin D serum binding protein,[2],"more weakly than does 1,25-(OH)2 D3"
same,differentiation of HL-60 promyelocytes to monocytes,HL-60 promyelocytes,potent activity in promoting differentiation
same,Rate of Production,Hep 3B cells; substrate 1α-OH-D2 1 μM,4.9 pmol per 10^6 cells/day
same,Rate of Production,Hep 3B cells; substrate 1α-OH-D2 10 μM,59 pmol per 10^6 cells/day
same,antiproliferative activity (inhibition of thymidine incorporation),[3],potent (and reversible) antiproliferative activity
same,"activity in the transcriptional activation system compared with 1α,24(R)-(OH)2 D2",vitamin D receptor (VDR),significantly more activity
